The target of data set [1] is T1, IRAK4 (Homo sapiens, UniProt Q9NWZ3).
T1 construct: endogenous in cells; host or cells: THP-1 cells
T1 sequence (Q9NWZ3 1-460): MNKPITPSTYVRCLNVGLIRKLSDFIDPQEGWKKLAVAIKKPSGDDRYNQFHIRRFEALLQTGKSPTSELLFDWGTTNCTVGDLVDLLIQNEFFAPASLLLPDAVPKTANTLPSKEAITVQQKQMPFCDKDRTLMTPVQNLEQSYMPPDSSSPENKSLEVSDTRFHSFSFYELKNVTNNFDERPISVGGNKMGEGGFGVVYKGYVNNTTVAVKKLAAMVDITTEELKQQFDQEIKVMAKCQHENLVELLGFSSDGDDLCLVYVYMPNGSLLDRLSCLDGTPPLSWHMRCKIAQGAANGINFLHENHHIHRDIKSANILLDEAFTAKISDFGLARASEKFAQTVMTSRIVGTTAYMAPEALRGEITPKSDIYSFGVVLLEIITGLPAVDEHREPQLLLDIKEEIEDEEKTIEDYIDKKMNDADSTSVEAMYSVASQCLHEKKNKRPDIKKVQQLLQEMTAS
Briefly: LVL THP1 HTRF (THP1 Homogeneous Time Resolved Fluorescence). Format: cell-based. The note with it: THP1 cells, 18 h incubation with compound; for DC50: read-out: LVL THP1 HTRF EC50. Put shortly:
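IRAK4 HTRF read-out (665/615 nm ratio, anti-IRAK4 d2 acceptor and K donor, 18 h dark incubation at room temperature) on lysates of THP-1 cells. Cells were treated 18 h at 37° C. with 20 nL compound in DMSO, in colorless RPMI with 10% FBS, with a duplicate CTG plate.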
In general terms: Time-resolved FRET reads energy transfer from a long-lived donor to a nearby acceptor.

Data set [2] can be described thus: Pharmacokinetic studies in mice (plasma PK, IV and PO). Format: in vivo. As to conditions: female C57B16 mice; for clearance: read-out: Clp; for Vd: read-out: VSS; for FPO: PO 3.0 mg/kg vs IV 0.50 mg/kg, dose-normalized AUCLAST. As to the method: Due to the higher molecular weight and lipophilicity, targeted protein degraders generally occupy a physiochemical property space that is beyond Lipinski's rule of 5 and as consequence are expected to have poor oral bioavailability and overall pharmacokinetic properties. […] The plasma pharmacokinetics (PK) of P-394, P-155, P-139, and P-160 were characterized in female C57B16 mice following intravenous (IV; 0.5 mg/kg) administration. Plasma from the tail vein was withdrawn in composite fashion: one group of mice (n=3) provided samples at 2 min, 30 min, 2 h, and 8 h, while another group (n=3) provided samples at 15 min, 1 h, 4 h, and 24 h. The concentrations of test article in these samples were measured using reverse-phase LC-MS-MS and then plotted as a function of time. The resulting concentration-time data was processed using noncompartmental analysis for the calculation of clearance (Cl), volume of distribution at steady state (Vss), half-life, mean residence time (MRT) and area under the time curve (AUC).
Similarly, the PK was characterized following oral (PO; 3 mg/kg) administration. Again, plasma from the tail vein was withdrawn in composite fashion: one group of mice (n=3) provided samples at 15 min, 1 h, 4 h, and 8 h, while another group (n=3) provided samples at […], 2 h, and 24 h. Oral bioavailability (FPO) was calculated by comparing the results of the studies described, dividing the dose-normalized AUCLAST,PO by the dose-normalized AUCLAST,IV.

The target in data set [3] is T1, IRAK4. Briefly: ALE THP1 HTRF (Advanced Lipoxidation End Product THP1 Homogeneous Time Resolved Fluorescence). It counts as cell-based. The note with it: THP1 cells. Put shortly: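 HTRF read-out of IRAK4 protein: anti-IRAK4 d2 and cryptate antibody pair added to BCA-normalized lysates, overnight dark room-temperature incubation. Lysis ran 45 min with shaking at room temperature; buffer, cryptate-only and negative controls included.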

Setting [4] is: mouse, 0.5 mg/kg, plasma, IV 0.50 mg/kg.
The mark [5] stands for this setting: mouse, 0.5 mg/kg, IV 0.50 mg/kg, plasma.

Where a name gives a salt, the structure may show the parent alone. Read-outs that look alike come from different tables or passages of the source.

With `CC[C@@H]1CN(CC[C@H]2CC[C@H](c3cn(-c4cnc(-n5ncc6cc(C#N)cnc65)cc4N[C@H](C)C#N)nn3)CC2)CCN1c1ccc(N2CCC(=O)NC2=O)cn1` [P-394, 1-(4-(((R)-1-cyanoethyl)amino)-5-(4-((1R,4R)-4-(2-((R)-4-(5-(2,4-dioxotetrahydropyrimidin-1(2H)-yl)pyridin-2-yl)-3-ethylpiperazin-1-yl)ethyl)cyclohexyl)-1H-1,2,3-triazol-1-yl)pyridin-2-yl)-1H-pyrazolo[3,4-b]pyridine-5-carbonitrile], on IRAK4 [1], the “LVL THP1 HTRF YMIN” value was found to be 1.4% and the DC50 is 6 nM. In data set [2] (setting [4]), the AUC(0-t) (in general, the area under the concentration-time curve up to a stated or last time point) was determined as 0.884 µM·h; the MRT – broadly, a mean duration of stay, worked out from the concentration-time curve – is 2.2 h; the half-life (as a rule, the time needed for the level to fall by half in the phase considered) is 1.7 h; the clearance is 11.8 mL/min/kg. The Vd in data set [2] (setting [4]) was determined as 1.58 L/kg. Besides, the bioavailability (in general, dose-corrected exposure relative to a reference, in per cent) in data set [2] (mouse, plasma, PO 3.00 mg/kg vs IV 0.50 mg/kg, dose-normalized AUCLAST ratio, read-out: FPO (oral bioavailability)) turned out to be 26.6%. In data set [2] (mouse, plasma, PO 3.00 mg/kg), the AUC(0-t) came to 1.41 µM·h; the Cmax (in general, the highest concentration seen after dosing) amounted to 559 nM; the Tmax (usually the time from dosing to the highest level) came out at 0.25 h.
Consider `C[C@H](C#N)Nc1cc(-n2ncc3cc(C#N)cnc32)ncc1-n1cc([C@H]2CC[C@H](CCN3CCN(c4ccc(C5CCC(=O)NC5=O)cc4)CC3)CC2)nn1` (stereo partly drawn) [P-139, 1-(4-(((R)-1-cyanoethyl)amino)-5-(4-((1r,4R)-4-(2-(4-(4-(2,6-dioxopiperidin-3-yl)phenyl)piperazin-1-yl)ethyl)cyclohexyl)-1H-1,2,3-triazol-1-yl)pyridin-2-yl)-1H-pyrazolo[3,4-b]pyridine-5-carbonitrile, formic acid salt], for which, at IRAK4 [3], the “ALE THP1 HTRF YMIN” value was determined as 5.6% and the concentration for a half-maximal effect (EC50) – broadly, the concentration needed to bring the measured effect to its halfway point – was 1 nM. Further, at IRAK4 [1], the “LVL THP1 HTRF YMIN” value is listed as 1.7% and the DC50 is 11 nM. In data set [2], this compound yielded an FPO of 39%. Also, in data set [2] (setting [5]), the AUC(0-t) came to 1.06 µM·h, the MRT is 4.59 h, the half-life is 2.98 h and the clearance was 10.6 mL/min/kg. Further, in data set [2] (setting [5]), the Vd was 2.91 L/kg. In data set [2] (mouse, PO 3.0 mg/kg, plasma), the AUC(0-t) was found to be 2.47 µM·h, the Cmax is 380 nM and the Tmax is 2 h.
As for `C[C@H](C#N)Nc1cc(-n2ncc3cc(C#N)c(N)nc32)ncc1C(=O)N[C@H]1CC[C@H](CCN2CCN(c3ccc(C4CCC(=O)NC4=O)cc3Cl)[C@H](C)C2)CC1` (stereo partly drawn) [P-168], at IRAK4 [3], the “ALE THP1 HTRF YMIN” value is listed as 5.5% and the EC50 amounted to 6 nM. In addition, on IRAK4 [1], the “LVL THP1 HTRF YMIN” value was less than 0.5% and the DC50 was 3 nM.
The matching figures for `C[C@H](C#N)Nc1cc(-n2ncc3cc(C#N)c(N)nc32)ncc1C(=O)N[C@H]1CC[C@H](CCN2CCN(c3ccc(C4CCC(=O)NC4=O)cc3)C(C(F)(F)F)C2)CC1` (stereo partly drawn) [P-181]: 27.7%, 168 nM, 18.3% and 112 nM.
Consider `C[C@H](C#N)Nc1cc(-n2ncc3cc(C#N)cnc32)ncc1-n1cc(C2CCC(CCN3CCN(c4ccc(C5CCC(=O)NC5=O)cc4)[C@H](C)C3)CC2)nn1` (stereo partly drawn) [P-155], for which, on IRAK4 [3], the “ALE THP1 HTRF YMIN” value came out at 10.2% and it took 2 nM to reach a half-maximal effect (EC50). On IRAK4 [1], the “LVL THP1 HTRF YMIN” value worked out at 0.9% and the DC50 came out at 6 nM. This compound displayed an FPO in data set [2] of approximately 100%. For the same compound, in data set [2] (setting [5]), the AUC(0-t) came out at 2.01 µM·h, the mean residence time (MRT) is 3.3 h, the half-life is 4.1 h and the clearance is 5.45 mL/min/kg. Also, the Vd in data set [2] (setting [5]) amounted to 1.08 L/kg. Further, in data set [2] (mouse, PO 3.0 mg/kg, plasma), the AUC(0-t) amounted to 13.7 µM·h, the peak level (Cmax) was 3010 nM and the Tmax came out at 2 h.
Regarding `C[C@H](C#N)Nc1cc(-c2ccc3cc(C#N)cnn23)ncc1C(=O)N[C@H]1CC[C@H](CCN2CCN(c3ccc(C4CCC(=O)NC4=O)cc3)CC2)CC1` (stereo partly drawn) [P-144], at IRAK4 [3], the “ALE THP1 HTRF YMIN” value came to 5.9% and it took 4 nM to reach a half-maximal effect (EC50). For the same compound, on IRAK4 [1], the “LVL THP1 HTRF YMIN” value was 0.8% and the DC50 was found to be 13 nM.
In the case of `C[C@H](C#N)Nc1cc(-n2ncc3cnc(N)nc32)ncc1C(=O)N[C@H]1CC[C@H](CCN2CCN(c3ccc(C4CCC(=O)NC4=O)cc3)CC2)CC1` (stereo partly drawn) [P-159], at IRAK4 [3], the “ALE THP1 HTRF YMIN” value was determined as 6.1% and the EC50 is 7 nM. In addition, at IRAK4 [1], the “LVL THP1 HTRF YMIN” value is listed as less than 0.5% and the DC50 is 18 nM.
Consider `C[C@H](C#N)Nc1cc(-n2ncc3cc(C#N)cnc32)ncc1C(=O)N[C@H]1CC[C@H](CCN2CCN(c3ccc(C4CCC(=O)NC4=O)cc3)[C@H](C)C2)CC1` (stereo partly drawn) [P-150], for which, at IRAK4 [3], the “ALE THP1 HTRF YMIN” value stood at 6.2% and a half-maximal effect (EC50) was put at 7 nM. Moreover, at IRAK4 [1], the “LVL THP1 HTRF YMIN” value was less than 0.5% and the DC50 was determined as 25 nM.
The matching figures for `C[C@H](C#N)Nc1cc(-n2ccc3cnc(N)nc32)ncc1C(=O)N[C@H]1CC[C@H](CCN2CCN(c3ccc(C4CCC(=O)NC4=O)cc3)CC2)CC1` (stereo partly drawn) [P-163]: 8.4%, 12 nM, less than 0.5% and 26 nM.
Turning to `C[C@H](C#N)Nc1cc(-n2ncc3cc(C#N)c(N)nc32)ncc1C(=O)N[C@H]1CC[C@H](CCN2CCN(c3ccc(C4CCC(=O)NC4=O)cc3)C(=O)C2)CC1` (stereo partly drawn) [P-177], at IRAK4 [3], the “ALE THP1 HTRF YMIN” value is listed as 6.7% and a half-maximal response (EC50) required 4 nM. Also, on IRAK4 [1], the “LVL THP1 HTRF YMIN” value is 6.4% and the DC50 came out at 32 nM.
In the case of `C[C@H](C#N)Nc1cc(-n2ncc3cc(C#N)c(N)nc32)ncc1-n1cc([C@H]2CC[C@H](CCN3CCN(c4ccc(C5CCC(=O)NC5=O)cc4)CC3)CC2)nn1` (stereo partly drawn) [P-160, 6-amino-1-(4-(((R)-1-cyanoethyl)amino)-5-(4-((1r,4R)-4-(2-(4-(4-(2,6-dioxopiperidin-3-yl)phenyl)piperazin-1-yl)ethyl)cyclohexyl)-1H-1,2,3-triazol-1-yl)pyridin-2-yl)-1H-pyrazolo[3,4-b]pyridine-5-carbonitrile, TFA], at IRAK4 [3], the “ALE THP1 HTRF YMIN” value came out at 5.8% and the EC50 was 4 nM. Moreover, on IRAK4 [1], the “LVL THP1 HTRF YMIN” value is 0.7% and the DC50 amounted to 4 nM. The FPO in data set [2] is given as 31.6%. In addition, in data set [2] (setting [5]), the AUC(0-t) came out at 0.739 µM·h, the MRT was determined as 3.8 h, the half-life was 3.2 h and the clearance came out at 14.9 mL/min/kg. For the same compound, the Vd in data set [2] (setting [5]) was 3.37 L/kg. For the same compound, in data set [2] (mouse, PO 3.0 mg/kg, plasma), the AUC(0-t) is 1.4 µM·h, the Cmax is 245 nM and the Tmax was determined as 2 h.
`C[C@H](C#N)Nc1cc(-n2ncc3cc(C#N)cnc32)ncc1-n1cc(C2CCC(CCN3CCN(c4ccc(C5CCC(=O)NC5=O)cc4)[C@@H](C)C3)CC2)nn1` (stereo in doubt) [P-156]: at IRAK4 [3], the “ALE THP1 HTRF YMIN” value is listed as 10.1% and a half-maximal response (EC50) required 1 nM. In addition, on IRAK4 [1], the “LVL THP1 HTRF YMIN” value is reported as 2.0% and the DC50 is 8 nM.
In the same order, the values of `N#Cc1cc2cnn(-c3cc(NC4CC4)c(-n4cc([C@H]5CC[C@H](CCN6CCN(c7ccc(C8CCC(=O)NC8=O)cc7)CC6)CC5)nn4)cn3)c2nc1N` (stereo partly drawn) [P-162] are 6.4%, 3 nM, 0.6% and 8 nM.
In the same order, the values of `C[C@H](C#N)Nc1cc(-n2ncc3cc(C#N)cnc32)ncc1C(=O)N[C@H]1CC[C@H](CCN2CC3CCC(C2)N3c2ccc(C3CCC(=O)NC3=O)cc2)CC1` (stereo partly drawn) [P-164] are 64.0%, 136 nM, 16.8% and more than 5000 nM.

The record behind these values is patent publication US20240109881A1, “Heteroaryl Compounds as Ligand Directed Degraders of IRAK4” (Bristol-Myers Squibb Company, priority 2022, published 2024).
